A short description of data set [1]: in vitro. The note with it: human, hek-293t.
Data set [2] relates to Mammarenavirus choriomeningitidis. In kind it is functional. The note with it: dose 0.5-5 µM.
Data set [3] relates to Human immunodeficiency virus. The data set can be described thus: Antiviral activity against HIV p24 assessed as extracellular antigen accumulation in primary macrophage at 25 uM. In kind it is functional.
Data set [4] can be described thus: in vitro. The note with it: human.
In data set [5] the test system is Middle East respiratory syndrome-related coronavirus. The data set can be described thus: microbe, parasite or virus in culture. In kind it is functional.
A short description of data set [6]: in vitro. The note with it: human, HeLa cells.
The target in data set [7] is Serine/threonine-protein kinase mTOR (Homo sapiens, UniProt P42345).
Data set [8] can be described thus: Cytotoxicity against human HaCaT cells. The format is toxicity, cell-based.
The nature of data set [9]: in vitro. The conditions noted are these: human, jurkat 6c6-du cell.
Data set [10] has as its system Human immunodeficiency virus. Briefly: microbe, parasite or virus in culture. The format is functional, organism-based. The conditions noted are these: Human immunodeficiency virus 1.
The subject of another data set is Cytomegalovirus. The data set can be described thus: Antiviral activity against CMV. In kind it is functional, organism-based. The note with it: Human betaherpesvirus 5.
Data set [11] can be described thus: Cytotoxicity against HSG cells. The note with it: human. The format is toxicity, cell-based.
Data set [12] has as its system Influenza A virus. The data set can be described thus: microbe, parasite or virus in culture. The conditions noted are these: H1N1. In kind it is functional, organism-based.
Data set [13] deals with Influenza A virus. Briefly: Antiviral activity against influenza pH1N1 virus. The format is functional, organism-based.
The nature of data set [14]: Cytotoxicity against human NCI-H1666 cells. In kind it is toxicity, cell-based.
Data set [15] can be described thus: Cytotoxicity against human LN-18 cells. In kind it is toxicity, cell-based.
Data set [16] has as its system Human immunodeficiency virus 1. Briefly: microbe, parasite or virus in culture. In kind it is functional, organism-based.
Data set [17] in a line: in vitro. The conditions noted are these: human, MDM cells.
In data set [18] the target is Cyclin-dependent kinase 4 (Homo sapiens, UniProt P11802).
Cyclin-dependent kinase 4, sequence (P11802 whole entry): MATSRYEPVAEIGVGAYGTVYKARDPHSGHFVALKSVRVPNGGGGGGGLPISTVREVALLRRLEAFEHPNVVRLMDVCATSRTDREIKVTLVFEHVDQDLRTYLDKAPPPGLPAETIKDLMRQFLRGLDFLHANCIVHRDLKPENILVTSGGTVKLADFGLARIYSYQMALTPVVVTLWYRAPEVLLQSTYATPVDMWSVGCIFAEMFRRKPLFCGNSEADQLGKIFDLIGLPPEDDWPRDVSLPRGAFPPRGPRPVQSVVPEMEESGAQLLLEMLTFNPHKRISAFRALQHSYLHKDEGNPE
In a further data set the test system is Human alphaherpesvirus 3. The data set can be described thus: microbe, parasite or virus in culture. The format is functional, organism-based.
The subject of data set [19] is Human immunodeficiency virus 2. Briefly: microbe, parasite or virus in culture. The format is functional, organism-based.
The nature of data set [20]: in vitro. The note with it: human, PBMC.
A further data set relates to dengue virus type 2. Briefly: microbe, parasite or virus in culture. The format is functional, organism-based.
For data set [21], the system named is Middle East respiratory syndrome-related coronavirus. Briefly: microbe, parasite or virus in culture.
In data set [22] the test system is Feline infectious peritonitis virus. The data set can be described thus: microbe, parasite or virus in culture. The conditions noted are these: Alphacoronavirus 1.
Data set [23] concerns Middle East respiratory syndrome-related coronavirus. The data set can be described thus: microbe, parasite or virus in culture. This is another data set of the same source.
The test system of the next data set is Dengue virus. The data set can be described thus: microbe, parasite or virus in culture. The note with it: Huh-7.
Data set [24] has as its system Human coronavirus 229E. The data set can be described thus: microbe, parasite or virus in culture.
Data set [25] has as its system Human coronavirus 229E. The data set can be described thus: microbe, parasite or virus in culture. The source holds these as a separate data set.
A short description of data set [26]: Cytotoxicity against human A549 cells. The format is toxicity, cell-based.
A short description of data set [27]: Cytotoxicity against MDCK-II cells. The format is toxicity, cell-based, Canis lupus familiaris. The conditions noted are these: dog.
Data set [28] has as its system Influenza A virus. Briefly: Antiviral activity against influenza A RB1/H1N1pdm09 virus. In kind it is functional, organism-based.
Data set [29] in a line: Cytotoxicity against human MCL cells. The format is toxicity, cell-based.

As to `Cn1c(=O)n(-c2ccc(C(C)(C)C#N)cc2)c2c3cc(-c4cnc5ccccc5c4)ccc3ncc21` [DACTOLISIB], the CC50 in “in vitro [1]” is above 5000 nM. Also, the “log(activity)” value in [2] is 2. Further, the Activity in data set [3] is 83%.

For orientation: inhibition means the change of the read-out against control, counted positive when it falls. A low value points to a response near the control. A word on the IC50: it is the concentration needed to halve the response being measured. A higher IC50 goes with lower potency. Regarding `CO[C@H]1C[C@@H]2CC[C@@H](C)[C@@](O)(O2)C(=O)C(=O)N2CCCC[C@H]2C(=O)O[C@H]([C@H](C)C[C@@H]2CC[C@@H](OCCO)[C@H](OC)C2)CC(=O)[C@H](C)/C=C(\C)[C@@H](O)[C@@H](OC)C(=O)[C@H](C)C[C@H](C)/C=C/C=C/C=C/1C` [EVEROLIMUS], the CC50 in the data set “in vitro [4]” (Huh-7 cells) was above 10000 nM; in “in vitro [6]”, 28300 nM; in data set [8], 28300 nM. Also, the inhibition at 10 µM in [5] is 56%. Also, the IC50 in [7] was 1.6 nM.

As usually defined, the EC50 is the concentration needed to bring the measured effect to its halfway point. As for `O=C(Nc1nc2cccc(-c3ccc(CN4CCS(=O)(=O)CC4)cc3)n2n1)C1CC1` [FILGOTINIB], the CC50 in “in vitro [9]” is above 10000 nM. In data set [10], this compound showed an EC50 of 3100 nM.

Compound `Cc1oncc1C(=O)Nc1ccc(C(F)(F)F)cc1` [LEFLUNOMIDE] gave an EC50 with Cytomegalovirus of 40000 nM. In data set [11], this compound showed a CC50 of 20800 nM.

As for `NC1(c2ccc(-c3nc4ccn5c(=O)[nH]nc5c4cc3-c3ccccc3)cc2)CCC1` [MK-2206], inhibition in the data set on Influenza A virus [12] was half-maximal at 790 nM (IC50). In the data set on Influenza A virus [13], this compound had an EC50 of 790 nM. The same compound showed a CC50 in data set [14] of 58500 nM.

In [15], `C1=C/COCc2cc(ccc2OCCN2CCCC2)Nc2nccc(n2)-c2cccc(c2)COC/1` [PACRITINIB] gave a CC50 above 1000 nM.

For the compound `CC(C)[C@H](CO)Nc1nc(Nc2cccc(Cl)c2)c2ncn(C(C)C)c2n1` [PURVALANOLA], the EC50 in [16] was 2210 nM; in the data set on Human alphaherpesvirus 3 it was 1000 nM. The compound also registered a CC50 in “in vitro [17]” of 18700 nM. For the same compound, the IC50 in data set [18] is 4 nM.

In the case of `N#CC[C@H](C1CCCC1)n1cc(-c2ncnc3[nH]ccc23)cn1` [RUXOLITINIB], the EC50 was found to be 200 nM in data set [19] and 300 nM in [16]. The compound further had a CC50 in “in vitro [20]” above 100000 nM.

`CN1CCN(CCOc2cc(OC3CCOCC3)c3c(Nc4c(Cl)ccc5c4OCO5)ncnc3c2)CC1` [SARACATINIB]: the CC50 in “in vitro [4]” (huh-7) was determined as 74000 nM. The EC50 came out at 12200 nM with dengue virus type 2; 2900 nM in data set [21]; 7000 nM in [22]; 2900 nM in [23]; 12200 nM with Dengue virus; 2400 nM in the data set on Human coronavirus 229E [24]. In the data set with Human coronavirus 229E [25], this compound displayed an EC50 of 2400 nM.

As for `CC(=O)Nc1cccc(-n2c(=O)n(C3CC3)c(=O)c3c(Nc4ccc(I)cc4F)n(C)c(=O)c(C)c32)c1` [TRAMETINIB], the CC50 in data set [26] and in data set [27] was above 20000 nM each time. Further, the EC50 in the data set on Influenza A virus [28] came to 16 nM.

In the case of `C=CC(=O)N1CCC([C@@H]2CCNc3c(C(N)=O)c(-c4ccc(Oc5ccccc5)cc4)nn32)CC1` [ZANUBRUTINIB], the CC50 in data set [29] was above 1400 nM.

The values are drawn from ChEMBL document CHEMBL5131375, “Recent Developments in the Use of Kinase Inhibitors for Management of Viral Infections” (J Med Chem, 2022).
